Experiment [1] has as its target ROCK2 (Homo sapiens, UniProt O75116). Briefly: ROCK assay (Caliper LABCHIP peptide phosphorylation), ROCK2. The experiment is classed as biochemical. The note with it: 5 μM ATP, 1.5 μM peptide substrate.
Experiment [2] concerns the target ROCK1 (Homo sapiens, UniProt Q13464). Briefly: ROCK assay (Caliper LABCHIP peptide phosphorylation), ROCK1. The experiment is classed as biochemical. Particulars: 5 μM ATP, 1.5 μM peptide substrate.
Experiment [3] has as its system congestive heart failure in Dahl salt-sensitive rats. Particulars: rat, in vivo; cited from earlier work.
Experiment [4] deals with spontaneously hypertensive rat, renal hypertensive rat and deoxycortisone acetate salt hypertensive rat models. The note with it: cited from earlier work.
The subject of experiment [5] is neointimal formation. Particulars: rats; cited from earlier work.
In experiment [6] the test system is rat stroke model. The note with it: in vivo; cited from earlier work.
Experiment [7] concerns IL-1 beta-induced coronary stenosis. Particulars: long term treatment; cited from earlier work.

The structures appear in SMILES notation. Like-named read-outs stand apart in the source and are kept apart here.

Sequence of ROCK2 (O75116 whole entry, species assumed): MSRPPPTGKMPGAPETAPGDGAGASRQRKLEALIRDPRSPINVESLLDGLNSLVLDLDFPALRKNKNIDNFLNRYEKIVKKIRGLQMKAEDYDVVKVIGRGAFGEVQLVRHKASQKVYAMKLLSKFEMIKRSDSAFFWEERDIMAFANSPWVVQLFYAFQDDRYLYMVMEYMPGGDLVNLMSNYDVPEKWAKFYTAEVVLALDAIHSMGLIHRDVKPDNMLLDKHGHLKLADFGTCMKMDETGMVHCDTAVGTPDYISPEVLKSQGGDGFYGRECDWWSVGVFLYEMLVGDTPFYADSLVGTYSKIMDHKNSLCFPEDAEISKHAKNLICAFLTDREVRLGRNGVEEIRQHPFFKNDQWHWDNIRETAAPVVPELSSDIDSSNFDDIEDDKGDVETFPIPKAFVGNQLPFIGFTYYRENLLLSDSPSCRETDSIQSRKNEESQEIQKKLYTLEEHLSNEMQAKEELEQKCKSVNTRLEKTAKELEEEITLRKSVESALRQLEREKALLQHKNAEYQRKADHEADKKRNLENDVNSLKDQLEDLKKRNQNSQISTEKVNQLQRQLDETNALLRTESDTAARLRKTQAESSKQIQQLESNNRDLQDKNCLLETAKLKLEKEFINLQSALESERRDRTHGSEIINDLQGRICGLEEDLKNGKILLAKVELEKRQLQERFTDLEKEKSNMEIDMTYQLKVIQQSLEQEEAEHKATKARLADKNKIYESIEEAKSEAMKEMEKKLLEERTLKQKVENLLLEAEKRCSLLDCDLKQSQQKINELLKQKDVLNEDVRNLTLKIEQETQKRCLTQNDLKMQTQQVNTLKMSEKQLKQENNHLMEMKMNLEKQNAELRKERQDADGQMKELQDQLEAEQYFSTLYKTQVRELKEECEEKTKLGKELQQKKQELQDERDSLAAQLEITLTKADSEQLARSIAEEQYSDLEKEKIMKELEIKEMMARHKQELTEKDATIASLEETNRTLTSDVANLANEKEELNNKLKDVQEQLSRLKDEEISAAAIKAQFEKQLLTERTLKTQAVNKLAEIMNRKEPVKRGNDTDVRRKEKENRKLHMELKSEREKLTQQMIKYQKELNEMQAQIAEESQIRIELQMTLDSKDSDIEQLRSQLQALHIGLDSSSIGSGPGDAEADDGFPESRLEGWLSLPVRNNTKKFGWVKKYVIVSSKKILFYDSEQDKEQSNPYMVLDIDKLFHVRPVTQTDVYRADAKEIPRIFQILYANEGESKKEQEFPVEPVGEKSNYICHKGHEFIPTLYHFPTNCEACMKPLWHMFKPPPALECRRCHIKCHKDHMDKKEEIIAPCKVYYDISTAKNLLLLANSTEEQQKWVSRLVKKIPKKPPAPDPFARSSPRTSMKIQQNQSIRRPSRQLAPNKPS
Sequence of ROCK1 (Q13464 whole entry, species assumed): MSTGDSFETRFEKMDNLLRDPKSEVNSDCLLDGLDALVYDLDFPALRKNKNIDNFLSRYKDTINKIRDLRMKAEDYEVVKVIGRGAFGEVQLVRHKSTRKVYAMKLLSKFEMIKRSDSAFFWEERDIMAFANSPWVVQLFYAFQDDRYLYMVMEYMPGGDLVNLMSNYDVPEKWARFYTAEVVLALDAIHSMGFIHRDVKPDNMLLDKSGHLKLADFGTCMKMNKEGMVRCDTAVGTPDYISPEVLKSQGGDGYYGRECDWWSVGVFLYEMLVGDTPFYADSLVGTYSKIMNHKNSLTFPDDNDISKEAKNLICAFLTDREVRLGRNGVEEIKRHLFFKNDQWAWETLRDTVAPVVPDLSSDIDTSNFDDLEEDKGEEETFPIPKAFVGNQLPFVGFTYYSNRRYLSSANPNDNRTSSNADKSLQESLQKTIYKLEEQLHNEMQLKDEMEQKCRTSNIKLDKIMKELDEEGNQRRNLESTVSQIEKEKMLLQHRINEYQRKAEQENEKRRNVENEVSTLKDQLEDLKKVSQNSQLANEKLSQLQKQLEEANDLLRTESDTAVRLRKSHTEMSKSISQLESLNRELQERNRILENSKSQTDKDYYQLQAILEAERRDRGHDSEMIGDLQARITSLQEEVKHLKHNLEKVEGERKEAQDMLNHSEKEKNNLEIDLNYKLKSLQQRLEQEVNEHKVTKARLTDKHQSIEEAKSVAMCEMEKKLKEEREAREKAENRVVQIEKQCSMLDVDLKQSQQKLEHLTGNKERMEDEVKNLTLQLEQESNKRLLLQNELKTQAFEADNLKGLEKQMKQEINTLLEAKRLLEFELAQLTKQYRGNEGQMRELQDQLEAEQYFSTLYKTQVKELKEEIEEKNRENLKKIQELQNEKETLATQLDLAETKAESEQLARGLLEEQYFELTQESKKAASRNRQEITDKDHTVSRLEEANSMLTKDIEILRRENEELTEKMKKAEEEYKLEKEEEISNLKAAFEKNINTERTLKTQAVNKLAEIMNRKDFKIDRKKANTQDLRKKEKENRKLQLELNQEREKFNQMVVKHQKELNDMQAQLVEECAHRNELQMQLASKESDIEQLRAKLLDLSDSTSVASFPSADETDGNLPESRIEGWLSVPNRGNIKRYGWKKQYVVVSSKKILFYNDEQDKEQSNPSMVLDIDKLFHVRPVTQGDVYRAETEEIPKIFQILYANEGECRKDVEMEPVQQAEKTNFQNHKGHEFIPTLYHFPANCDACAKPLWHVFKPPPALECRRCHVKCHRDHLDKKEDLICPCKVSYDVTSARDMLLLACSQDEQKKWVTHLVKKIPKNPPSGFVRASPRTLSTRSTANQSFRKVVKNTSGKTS

Take `COc1cc(NC(=O)[C@H](N)Cc2ccc3ccccc3c2)ccc1-c1cn[nH]c1` [Example 6, (R)-2-amino-N-(3-methoxy-4-(1H-pyrazol-4-yl)phenyl)-3-(naphthalen-2-yl)propanamide]: the IC50 – broadly, the concentration needed to halve the response being measured – in experiment [1] was found to be 3.25 nM; in experiment [2] it was 8.78 nM.

On to `COc1cc(NC(=O)[C@@H](N)Cc2csc3ccccc23)ccc1-c1cn[nH]c1` [Example 9, (S)-2-amino-3-(benzo[b]thiophen-3-yl)-N-(3-methoxy-4-(1H-pyrazol-4-yl)phenyl) propanamide], for which the IC50 in experiment [1] was found to be 17.9 nM; in experiment [2], 31.6 nM.

With `COc1cc(NC(=O)[C@H](N)Cc2cccc(C(F)(F)F)c2)ccc1-c1cn[nH]c1` [Example 11, (R)-2-amino-N-(3-methoxy-4-(1H-pyrazol-4-yl)phenyl)-3-(3-(trifluoromethyl)phenyl)propanamide], the figures for the IC50 in experiment [1] and in experiment [2] were 14.3 nM and 50 nM, respectively.

As for `COc1cc(NC(=O)[C@H](N)Cc2ccccc2C(F)(F)F)ccc1-c1cn[nH]c1` [Example 12, (R)-2-amino-N-(3-methoxy-4-(1H-pyrazol-4-yl)phenyl)-3-(2-(trifluoromethyl)phenyl)propanamide], the 50% inhibitory concentration (IC50) in experiment [1] was found to be 23.6 nM; in experiment [2] it was 19.9 nM.

Regarding `COc1cc(NC(=O)[C@H](N)Cc2ccc(-c3ccccc3)cc2)ccc1-c1cn[nH]c1` [Example 13, (R)-3-([1,1′-biphenyl]-4-yl)-2-amino-N-(3-methoxy-4-(1H-pyrazol-4-yl)phenyl)propanamide], the concentration for half-maximal inhibition (IC50) was determined as 10.3 nM in experiment [1] and 68.4 nM in experiment [2].

With `COc1cc(NC(=O)[C@H](N)Cc2cc(F)cc(F)c2)ccc1-c1cn[nH]c1` [Example 14, (R)-2-amino-3-(3,5-difluorophenyl)-N-(3-methoxy-4-(1H-pyrazol-4-yl)phenyl) propanamide], the values for the IC50 in experiment [1] and in experiment [2] were 13.4 nM and 12.6 nM, respectively.

`COc1cc(NC(=O)[C@H](N)Cc2ccccc2Cl)ccc1-c1cn[nH]c1` [Example 19, (R)-2-amino-3-(2-chlorophenyl)-N-(3-methoxy-4-(1H-pyrazol-4-yl)phenyl) propanamide]: the IC50 came out at 37.5 nM in experiment [1] and 13.9 nM in experiment [2].

`O=C(Cc1ccccc1Cl)Nc1ccc(-c2cn[nH]c2)cc1OCCN1CCCC1` [Example 23, N-(4-(1H-Pyrazol-4-yl)-2-(2-(pyrrolidin-1-yl)ethoxy)phenyl)-2-(2-chlorophenyl)acetamide]: the concentration for half-maximal inhibition (IC50) in experiment [1] was found to be 8.51 nM; in experiment [2] it was 111 nM.

On to `CN(C)CCOc1cc(-c2cn[nH]c2)c(F)cc1NC(=O)[C@H](N)CCc1ccccc1` [Example 27, (R)-2-Amino-N-(2-(2-(dimethylamino)ethoxy)-5-fluoro-4-(1H-pyrazol-4-yl)phenyl)-4-phenylbutanamide], for which the 50% inhibitory concentration (IC50) in experiment [1] was determined as 342 nM; in experiment [2] it was 874 nM.

Take `N[C@H](CCc1ccccc1)C(=O)Nc1ccc(-c2cn[nH]c2)cc1` [Example 28, (R)—N-(4-(1H-Pyrazol-4-yl)phenyl)-2-amino-4-phenylbutanamide]: the IC50 came to 17.8 nM in experiment [1] and 42.5 nM in experiment [2].

Regarding `O=C(Cc1ccccc1Cl)Nc1ccc(-c2cn[nH]c2)cc1` [Example 29, N-(4-(1H-Pyrazol-4-yl)phenyl)-2-(2-chlorophenyl)acetamide], the figures for the concentration for half-maximal inhibition (IC50) in experiment [1] and in experiment [2] were 4.06 nM and 19.6 nM, respectively.

As for `COc1cc(NC(=O)[C@H](N)CCc2ccccc2)ccc1-c1c[nH]nc1C` [Example 30, (R)-2-Amino-N-(3-methoxy-4-(3-methyl-1H-pyrazol-4-yl)phenyl)-4-phenylbutanamide], the figures for the concentration for half-maximal inhibition (IC50) in experiment [1] and in experiment [2] were 167 nM and 232 nM, respectively.

As to `C[C@@H](N)[C@H]1CC[C@H](C(=O)Nc2ccncc2)CC1` [Example Y-27632, Y-27632], in experiment [3], the “ventricular hypertrophy, fibrosis and function” value is “improve ventricular hypertrophy, fibrosis and function”. In addition, the blood pressure entry in experiment [4] (control rats) is “only a minor effect on blood pressure”; in experiment [4] (three rat models of hypertension) it was “significantly decrease blood pressure”. For the same compound, the neointimal formation entry in experiment [5] is “inhibited neointimal formation”.

For the compound `O=S(=O)(c1cccc2cnccc12)N1CCCNCC1` [fasudil], the “infarct size and neurologic deficit” value in experiment [6] is “reduce both the infarct size and neurologic deficit”. For the same compound, in experiment [7], the coronary constrictive remodeling entry was “promote a regression of coronary constrictive remodeling” and the coronary stenosis result is listed as “progressively reduce coronary stenosis”.

Source of the values: patent US9828345B2, “Phenylpyrazole derivatives as potent ROCK1 and ROCK2 inhibitors” (BRISTOL-MYERS SQUIBB COMPANY, priority 2013, dated 2017).
